Measurements: US20210244028A1, “TREATMENT FOR REMOVING ECTOPARASITES FROM FISH” (priority 2018, published 2021)
Values joined by “and” are separate entries in the source; they are usually repeats but may differ in a detail not shown here. Identical values can stand only once.

What was measured:
Lepeophtheirus salmonis [1] = test: Relative efficacy study, 60 min static bucket treatment of infected salmon (Example 2.2); format: in vivo
Procedure: 120 salmon fish (Salmo salar) were divided across five flow-through treatment tanks and acclimated for 24 hours prior to parasite challenge.
Egg strings removed from ovigerous female Lepeophtheirus salmonis were collected and cultured until infective copepodids were produced. The copepodids were then evenly distributed into five bottles containing sea water and stored at ˜10° C. overnight. In preparation for the challenge, water flows in the treatment tanks were stopped and light levels reduced. 650±20 copepodids (˜27 per host) were added to the static water and the tanks maintained in total darkness for 7 hours after which light levels were raised and the water flow resumed.
Fish were randomly divided into ten groups of ten fish and held in static ‘treatment buckets’ containing 30 L of water and high aeration as shown in Table 3. […]
Experimental animals were monitored closely for adverse reactions and the status of the parasite infection. Where possible the time at which all parasites were thought to have detached was recorded. As treatments were performed in static systems, temperature and dissolved oxygen were regularly monitored throughout the procedure and aeration adjusted as required.
After the treatment period, the test animals were removed from the treatment solution and humanly euthanised. Each fish was weighed, measured, and its individual parasite burden assessed. The number of parasites in the treatment solution was also counted and qualitatively assessed for: sex and maturity, apparent signs of neonicotinoid poisoning, and/or potential recovery.
Logistic regression was used to compare parasite clearance after treatment with each of the concentration. Logistic regression analyses were performed using the glm function in R v.2.13.0 and assumed a binomial or quasi-binomial error distribution (determined through the comparison of the null deviance with the degrees of freedom).

Lepeophtheirus salmonis [2] = test: Immersion treatment of sea lice-challenged salmon in tanks, 1 or 6 weeks post challenge (Example 1); format: in vivo
Source text: Eight flow-through treatment tanks each containing 15 fish were set up. The fish were Salmon (Salmo salar) having an average weight of approximately 270 g and of mixed sex. Egg strings removed from ovigerous female Lepeophtheirus salmonis were collected and cultured until infective copepodids were produced. Eight bottles containing approximately 330-350 copepodids were each randomly allocated to a treatment tank (to provide an average of 22 lice per fish).
In preparation for the challenge, water flows in the tanks were stopped and light levels reduced. The lice were then added to each tank and the tanks maintained in total darkness for 6 hours after which light levels were raised and the water flow resumed.
The fish were challenged with sea lice for either one week or for six weeks.
One week after the sea lice challenge, fish in three of the tanks were treated with either 10 ppm w/v, 30 ppm w/v or 50 ppm w/v imidacloprid. One of the tanks was treated with 0.03% DMSO and another tank sham treated with sea water as controls.
For each treatment tank, the appropriate amount of imidacloprid (see Table 1) was dissolved in 100 ml of DMSO and mixed with approximately 900 ml of sea water from the experimental tank to obtain a treatment solution. The water flow on the experimental tanks was disabled and the treatment solution was then added.
Fish were exposed for 60 minutes in static water with full aeration and observed during the exposure period. At the end of the exposure period the water was rapidly drained to approximately ⅓ volume, before the flows were resumed in the tanks.
Six weeks after the fish were challenged with sea lice, the fish in the three remaining treatment tanks were treated with either 10 ppm w/v, 30 ppm w/v or 50 ppm w/v imidacloprid. The treatment was carried out in the same way as for the treatment tanks one week post challenge (see 1.2.1).
Eight weeks after the fish were challenged with sea lice, the study was terminated. Fish were over anaesthetised in MS222 (tricaine methanesulfonate) and pithed using an Iki Jime tool.
The length and weight of each fish and external symptoms were recorded. All lice were removed from each fish and note made of sex and stage of development. The lice were stored in ethanol and sex and stage confirmed using stereo microscope.
The data is expressed as prevalence and abundance. Prevalence is defined as the number of hosts infected with one of more individuals of a parasite species divided by the number of hosts examined (including infected and uninfected hosts) and expressed as a percentage.

[3] = system: azamethiphos- and deltamethrin-resistant sea lice; test: In vitro bath exposure of isolated sea lice (Example 6); settings: 60 minutes exposure; for % effect: registered approx. 20 h after end of exposure
Procedure: A trial was performed to ensure there was no cross-resistance between azamethiphos- and deltamethrin-resistant sea lice and neonicotinoids. Both pre-adult and adult stages (mobile stages) of both sexes were used, and they were equally distributed among groups. The sea lice were exposed to imidacloprid for 60 minutes, azamethiphos for 60 minutes and deltamethrin for 30 minutes in one litre baths at a range of concentrations (Tables 6, 7 and 8). The sea lice were transferred to clean aerated seawater after treatment. The temperature of the seawater during the experiment was 12° C., but during exposure the temperature raised to approx. 14° C. in regimes exposed for 60 min. (imidacloprid and azamethiphos) and to 13° C. for the regime exposed in 30 minutes (deltamethrin).
The numbers of live and immobilised (including killed) lice in each regime were registered approximately 20 h after end of exposure. Each louse was individually investigated.

Question: Which results are given for `O=[N+]([O-])NC1=NCCN1Cc1ccc(Cl)nc1` [imidacloprid]?
Answer: Parasites remained attached to their hosts at the sampling point (Lepeophtheirus salmonis [1]; 10 mg/l): 20%; Parasites remained attached to their hosts at the sampling point (Lepeophtheirus salmonis [1]; 25 mg/l): 3%; Parasites remained attached to their hosts at the sampling point (Lepeophtheirus salmonis [1]; 15 and 20 mg/l): 8%; Overall lice abundances compared with the DMSO control (Lepeophtheirus salmonis [2]; 10, 30 or 50 ppm w/v, treated one week post challenge): No significant differences; Time after addition at which no fish were visibly infected with lice (Lepeophtheirus salmonis [2]; 30 ppm w/v, treated 6 weeks post challenge): 59 min; Lesions associated with feeding and attachment of lice (Lepeophtheirus salmonis [2]; 30 ppm w/v, two days post-treatment): almost completely resolved; Time after addition at which no lice were visible on the fish (Lepeophtheirus salmonis [2]; 50 ppm w/v, treated 6 weeks post challenge): 81 min; Lesions associated with feeding and attachment of lice (Lepeophtheirus salmonis [2]; 50 ppm w/v, two days post treatment): almost completely resolved; % effect ([3]; 5 ppm): 30%; % effect ([3]; 10 ppm): 40% and 50%; % effect ([3]; 15 ppm): 100%; % effect ([3]; 20 ppm): 100%; % effect ([3]; 30 ppm): 100%; estimated EC50 value ([3]; immobilisation approx. 20 h after exposure): 7.6 ppm
